Measured values: ChEMBL document CHEMBL1157738, “Simocyclinone D8 turns on against Gram-negative bacteria in a clinical setting” (2010)
Values after ≈ are worked out from the molar mass of the structure shown.

What was measured:
Assay type in all cases: functional
Klebsiella pneumoniae [1] = assay: Antibacterial activity against Klebsiella pneumoniae isolate 16 expressing qnr B19 gene, GyrA D87G mutant after 24 hrs by twofold serial dilution method; settings: isolate 16, 24 h
Klebsiella pneumoniae [2] = assay: Antibacterial activity against Klebsiella pneumoniae isolate 204 expressing qnr B19 gene after 24 hrs by twofold serial dilution method; settings: Klebsiella pneumoniae, isolate 204, 24 h
Klebsiella pneumoniae [3] = assay: Antibacterial activity against Klebsiella pneumoniae isolate 172 expressing qnr B19 gene, GyrA D87G mutant after 24 hrs by twofold serial dilution method; settings: isolate 172, 24 h
Escherichia coli [4] = assay: Antibacterial activity against Escherichia coli isolate 21 after 24 hrs by twofold serial dilution method; settings: Escherichia coli, isolate 21, 24 h
Escherichia coli [5] = assay: Antibacterial activity against Escherichia coli isolate 13 after 24 hrs by twofold serial dilution method; settings: Escherichia coli, isolate 13, 24 h
Escherichia coli [6] = assay: Antibacterial activity against Escherichia coli isolate 7 after 24 hrs by twofold serial dilution method; settings: Escherichia coli, isolate 7, 24 h
Escherichia coli [7] = assay: Antibacterial activity against Escherichia coli Top10 after 24 hrs by twofold serial dilution method; settings: Escherichia coli, Top10, 24 h
Escherichia coli [8] = assay: Antibacterial activity against Escherichia coli HB101 after 24 hrs by twofold serial dilution method; settings: Escherichia coli, HB101, 24 h
Escherichia coli [9] = assay: Antibacterial activity against Escherichia coli JM109 after 24 hrs by twofold serial dilution method; settings: Escherichia coli, JM109, 24 h
Escherichia coli [10] = assay: Antibacterial activity against Escherichia coli JM110 after 24 hrs by twofold serial dilution method; settings: Escherichia coli, JM110, 24 h
Escherichia coli [11] = assay: Antibacterial activity against Escherichia coli XL-1Blue after 24 hrs by twofold serial dilution method; settings: Escherichia coli, XL-1Blue, 24 h
Staphylococcus aureus = assay: Antibacterial activity against Staphylococcus aureus after 24 hrs by twofold serial dilution method; settings: Staphylococcus aureus, 24 h
Klebsiella pneumoniae [12] = assay: Antibacterial activity against Klebsiella pneumoniae isolate 5 expressing qnr B19 gene, GyrA D87G mutant after 24 hrs by twofold serial dilution method; settings: isolate 5, 24 h
Klebsiella pneumoniae [13] = assay: Antibacterial activity against Klebsiella pneumoniae isolate 110 expressing qnr B19 gene, GyrA D87G mutant after 24 hrs by twofold serial dilution method; settings: isolate 110, 24 h
Klebsiella pneumoniae [14] = assay: Antibacterial activity against Klebsiella pneumoniae isolate 97 expressing qnr B19 gene after 24 hrs by twofold serial dilution method; settings: Klebsiella pneumoniae, isolate 97, 24 h
Escherichia coli [15] = assay: Antibacterial activity against Escherichia coli isolate 95 expressing GyrA S83L mutant after 24 hrs by twofold serial dilution method; settings: isolate 95, 24 h
Escherichia coli [16] = assay: Antibacterial activity against Escherichia coli isolate 115 expressing GyrA S83L mutant after 24 hrs by twofold serial dilution method; settings: isolate 115, 24 h
Escherichia coli [17] = assay: Antibacterial activity against Escherichia coli isolate 85 expressing GyrA S83L mutant after 24 hrs by twofold serial dilution method; settings: isolate 85, 24 h
Escherichia coli [18] = assay: Antibacterial activity against Escherichia coli isolate 24 after 24 hrs by twofold serial dilution method; settings: Escherichia coli, isolate 24, 24 h
Escherichia coli [19] = assay: Antibacterial activity against Escherichia coli isolate 41 after 24 hrs by twofold serial dilution method; settings: Escherichia coli, isolate 41, 24 h
Escherichia coli [20] = assay: Antibacterial activity against Escherichia coli isolate 191 expressing qnr S1 gene after 24 hrs by twofold serial dilution method; settings: Escherichia coli, isolate 191, 24 h
Escherichia coli [21] = assay: Antibacterial activity against Escherichia coli isolate 9 expressing qnr B19 gene, GyrA D87G, ParC S80I mutant after 24 hrs by twofold serial dilution method; settings: isolate 9, 24 h
Escherichia coli [22] = assay: Antibacterial activity against Escherichia coli isolate 50 expressing qnr B19 gene after 24 hrs by twofold serial dilution method; settings: Escherichia coli, isolate 50, 24 h
Escherichia coli [23] = assay: Antibacterial activity against Escherichia coli isolate 47 expressing qnr B19 gene after 24 hrs by twofold serial dilution method; settings: Escherichia coli, isolate 47, 24 h
Klebsiella pneumoniae [24] = assay: Antibacterial activity against Klebsiella pneumoniae isolate 173 after 24 hrs by twofold serial dilution method; settings: Klebsiella pneumoniae, isolate 173, 24 h
Klebsiella pneumoniae [25] = assay: Antibacterial activity against Klebsiella pneumoniae isolate 91 after 24 hrs by twofold serial dilution method; settings: Klebsiella pneumoniae, isolate 91, 24 h
Klebsiella pneumoniae [26] = assay: Antibacterial activity against Klebsiella pneumoniae isolate 134 after 24 hrs by twofold serial dilution method; settings: Klebsiella pneumoniae, isolate 134, 24 h
Klebsiella pneumoniae [27] = assay: Antibacterial activity against Klebsiella pneumoniae isolate 92 after 24 hrs by twofold serial dilution method; settings: Klebsiella pneumoniae, isolate 92, 24 h
Klebsiella pneumoniae [28] = assay: Antibacterial activity against Klebsiella pneumoniae isolate 370 expressing qnr B19 gene, GyrA D87G mutant after 24 hrs by twofold serial dilution method; settings: isolate 370, 24 h
Klebsiella pneumoniae [29] = assay: Antibacterial activity against Klebsiella pneumoniae isolate 328 expressing qnr B19 gene, GyrA D87G mutant after 24 hrs by twofold serial dilution method; settings: isolate 328, 24 h

O=C(O)c1cn(C2CC2)c2cc(N3CCNCC3)c(F)cc2c1=O [CIPROFLOXACIN]
MIC90 (Klebsiella pneumoniae [1]): 2 µg/mL (≈ 6.04 µM) | MIC90 (Klebsiella pneumoniae [2]): 0.75 µg/mL (≈ 2.26 µM) | MIC90 (Klebsiella pneumoniae [3]): < 0.25 µg/mL | MIC90 (Escherichia coli [4]): 4 µg/mL (≈ 12.1 µM) | MIC90 (Escherichia coli [5]): > 4 µg/mL | MIC90 (Escherichia coli [6]): > 4 µg/mL | MIC90 (Escherichia coli [7]): < 0.25 µg/mL | MIC90 (Escherichia coli [8]): < 0.25 µg/mL | MIC90 (Escherichia coli [9]): > 4 µg/mL | MIC90 (Escherichia coli [10]): > 4 µg/mL | MIC90 (Escherichia coli [11]): > 4 µg/mL | MIC90 (Staphylococcus aureus): > 4 µg/mL | MIC90 (Klebsiella pneumoniae [12]): < 0.25 µg/mL | MIC90 (Klebsiella pneumoniae [13]): < 0.25 µg/mL | MIC90 (Klebsiella pneumoniae [14]): < 0.25 µg/mL | MIC90 (Escherichia coli [15]): 1 µg/mL (≈ 3.02 µM) | MIC90 (Escherichia coli [16]): 0.5 µg/mL (≈ 1.51 µM) | MIC90 (Escherichia coli [17]): 0.5 µg/mL (≈ 1.51 µM) | MIC90 (Escherichia coli [18]): < 0.25 µg/mL | MIC90 (Escherichia coli [19]): < 0.25 µg/mL | MIC90 (Escherichia coli [20]): 1 µg/mL (≈ 3.02 µM) | MIC90 (Escherichia coli [21]): > 4 µg/mL | MIC90 (Escherichia coli [22]): < 0.25 µg/mL | MIC90 (Escherichia coli [23]): < 0.25 µg/mL | MIC90 (Klebsiella pneumoniae [24]): > 4 µg/mL | MIC90 (Klebsiella pneumoniae [25]): > 4 µg/mL | MIC90 (Klebsiella pneumoniae [26]): < 0.25 µg/mL | MIC90 (Klebsiella pneumoniae [27]): < 0.25 µg/mL | MIC90 (Klebsiella pneumoniae [28]): > 4 µg/mL | MIC90 (Klebsiella pneumoniae [29]): > 4 µg/mL
